{"source": "patent US11999676B2", "about": "“Vesicular monoamine transporter-2 ligands and their use in the treatment of psychostimulant abuse” (priority 2016, dated 2024)", "key": {"VMAT2 [1]": {"target": "T1, VMAT2 (Rattus norvegicus (Rat), UniProt Q01827)", "conditions": "rat brain synaptic vesicles; read-out: [3H]DTBZ binding (Ki) VMAT2"}, "VMAT2 [2]": {"target": "T1, VMAT2", "assay": "[3H]Dopamine ([3H]DA) uptake assay, vesicular preparation", "assay_type": "biochemical"}, "in vitro [3]": {"assay": "in vitro", "conditions": "female, Sprague-Dawley, rat, microsomes, pH 7.4, Microsomal stability assays: Clearance", "procedure": "(§3) Each plate holds triplicate samples of two controls (0.4 mM) and up to 14 compounds (0.08 mM) in rat and human liver microsomes. Aliquots of each well of the plate (175 μl of each well) were transferred from the master plate into 5 assay plates. For 0-hr time point, pre-cooled (4° C.) internal standard (437.5 μL, 2 μM caffeine in methanol) was added to the first plate before the reaction starts. NADPH regenerating system solution A (6.05 ml, Fisher Scientific, #NC9255727) was combined with NADPH regenerating system solution B (1.21 ml, Fisher Scientific, #NC9016235) in potassium phosphate buffer (15.8 ml, 0.1 M, pH 7.4, 37° C.). The resulting NADPH solution (43.8 μl) was added to each well of all the 96-well assay plates and mixed with pipette briefly making the final protein and compound concentrations respectively: 0.5 mg/ml, 0.08 μM (0.4 μM for controls). Plates were sealed, and all plates except the 0-hr plate were incubated at 37° C., shaken at a speed of 60 rpm. A single assay plate was tested at each time point: 0.5 hr, 1 hr, 2 hr, and 4 hr. At each time point, 437.5 μL of pre-cooled internal standard was added each well of the plate to quench the reaction. […] 120 μl supernatant was transferred to a 96-well plate, centrifuged again and analyzed by UPLC-MS (Waters Inc., Milford, MA). The compounds and internal standard were detected by selected ion recording (SIR).\n(§4) The amount of material was measured as a ratio of peak area to the internal standard and graphed. Using the slope from the initial linear portion of this curve, the degradation rate constant is calculated using equation [1]."}, "[4]": {"assay": "Microsomal stability assay, rat liver microsomes", "conditions": "female, Sprague-Dawley, rat, pH 7.4, Microsomal stability assays: Half-life", "procedure": "as §3, §4"}, "hERG channel": {"target": "hERG channel (Homo sapiens (Human), UniProt Q12809)", "sequence (Q12809 whole entry)": "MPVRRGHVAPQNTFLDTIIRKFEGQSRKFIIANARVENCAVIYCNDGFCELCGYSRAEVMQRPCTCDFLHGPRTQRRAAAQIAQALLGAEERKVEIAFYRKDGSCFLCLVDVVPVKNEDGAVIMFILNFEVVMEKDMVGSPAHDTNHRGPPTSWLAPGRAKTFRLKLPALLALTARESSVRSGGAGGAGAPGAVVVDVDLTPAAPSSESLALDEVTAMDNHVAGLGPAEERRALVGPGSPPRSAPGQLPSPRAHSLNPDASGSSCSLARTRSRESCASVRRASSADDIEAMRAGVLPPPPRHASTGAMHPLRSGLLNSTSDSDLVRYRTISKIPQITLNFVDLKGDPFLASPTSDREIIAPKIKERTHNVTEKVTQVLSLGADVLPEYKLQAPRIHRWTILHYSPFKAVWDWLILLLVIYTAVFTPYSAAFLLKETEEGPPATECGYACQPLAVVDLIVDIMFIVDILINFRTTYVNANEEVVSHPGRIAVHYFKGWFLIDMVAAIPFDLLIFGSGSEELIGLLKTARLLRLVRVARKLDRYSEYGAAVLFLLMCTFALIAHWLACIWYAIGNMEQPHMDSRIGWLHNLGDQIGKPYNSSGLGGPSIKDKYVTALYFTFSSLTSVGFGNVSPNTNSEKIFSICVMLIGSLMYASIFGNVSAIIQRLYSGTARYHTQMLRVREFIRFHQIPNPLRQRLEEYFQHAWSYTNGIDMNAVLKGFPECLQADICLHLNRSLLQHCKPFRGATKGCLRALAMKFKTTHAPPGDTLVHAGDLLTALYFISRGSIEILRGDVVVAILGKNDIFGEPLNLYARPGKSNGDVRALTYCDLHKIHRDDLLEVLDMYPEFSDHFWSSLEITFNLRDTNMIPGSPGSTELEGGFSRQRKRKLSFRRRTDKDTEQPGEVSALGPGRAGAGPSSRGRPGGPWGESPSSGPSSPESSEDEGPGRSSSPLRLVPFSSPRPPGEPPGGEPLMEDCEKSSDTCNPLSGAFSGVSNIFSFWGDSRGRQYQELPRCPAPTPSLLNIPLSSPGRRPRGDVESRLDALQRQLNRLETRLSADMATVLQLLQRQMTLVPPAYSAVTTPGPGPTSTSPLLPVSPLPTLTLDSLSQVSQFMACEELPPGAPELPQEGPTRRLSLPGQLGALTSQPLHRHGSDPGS", "assay": "[3H]Dofetilide binding assay, HEK-293 cell membrane preparation", "method": "(§1) [^3H]Dofetilide binding assays were conducted using commercially available HEK-293 cell membranes which stably express the hERG channel. Membranes were suspended in assay buffer (50 mM Tris, 10 mM KCl, 1 mM MgCl2, pH 7.4) prior to the experiment. […] Aliquots of the HEK-293 cell membrane suspension which contained 5 μg membrane protein were added to tubes containing assay buffer, 5 nM [^3H]dofetilide and a range of concentrations of analog (10 nM-100 μM). Nonspecific binding was determined in the presence of amitriptyline (1 mM). Samples were incubated for 1 hr. at 24° C., followed by rapid filtration. […] The affinity for the [^3H]dofetilide binding site on the hERG channel expressed in the HEK-293 cellular membrane was determined from the analog concentration response curves."}, "in vitro [5]": {"assay": "in vitro", "conditions": "both, human, microsomes, pH 7.4, Microsomal stability assays: Clearance", "procedure": "as §3, §4"}, "[6]": {"assay": "Microsomal stability assay, human liver microsomes", "conditions": "for half-life at 0.08 µM: both, human, pH 7.4, Microsomal stability assays: Half-life", "procedure": "as §3, §4"}, "[7]": {"target": "hERG channel (selectivity at VMAT2 over hERG) (Homo sapiens (Human), UniProt Q12809)", "sequence (Q12809 whole entry)": "as above", "assay": "[3H]Dofetilide binding assay, HEK-293 cell membrane preparation", "conditions": "human, pH 7.4", "method": "as §1"}, "[8]": {"target": "dopamine transporter (DAT) (Rattus norvegicus (Rat), UniProt P23977)", "assay": "[3H]DA uptake assay, synaptosomal preparation", "assay_type": "biochemical", "method": "(§2) [^3H]DA and [^3H]5-HT uptake into striatal synaptosomes was determined to evaluate compound inhibition of the dopamine transporter (DAT) and the serotonin transporter (SERT), respectively."}, "[9]": {"target": "serotonin transporter (SERT) (Rattus norvegicus (Rat), UniProt P31652)", "assay": "[3H]5-HT uptake assay, synaptosomal preparation", "assay_type": "biochemical", "method": "as §2"}, "rats": {"tested_on": "rats", "assay": "METH-stimulated locomotor activity in rats", "assay_type": "in vivo, rat", "conditions": "17 mg/kg, s.c."}, "[10]": {"conditions": "rat striatal synaptic vesicles, read-out: [3H]DA uptake (Ki) VMAT2"}, "[11]": {"conditions": "[3H]DA uptake, rat, read-out: VMAT2 (rat) Inhibition: Mean Ki ± Standard Deviation"}}, "note": "Where two headings read alike, the source gives them in different places.", "data": [{"molecule": "CC(Cc1ccc(O)cc1)NCCCc1ccccc1", "note": "(stereo not drawn) [Compound 37]", "values": [{"measurement": "Ki", "setting": "VMAT2 [1]", "result": "820 ± 270", "unit": "nM"}, {"measurement": "Ki", "setting": "VMAT2 [2]; [10]", "result": "33 ± 8", "unit": "nM"}]}, {"molecule": "O=CNc1ccc(CC(CF)NCCCc2ccc(F)cc2)cc1", "note": "(stereo not drawn) [Compound 73]", "values": [{"measurement": "CLint scaled at 0.08 µM", "setting": "in vitro [3]", "result": 43.7, "unit": "mL/min/kg"}, {"measurement": "half-life at 0.08 µM", "setting": "[4]; liver microsomes", "result": 66, "unit": "min"}]}, {"molecule": "CC(Cc1ccccc1)NCCCCc1ccccc1", "note": "(stereo not drawn) [Compound 15]", "values": [{"measurement": "Ki", "setting": "VMAT2 [1]", "result": "190 ± 20", "unit": "nM"}, {"measurement": "Ki", "setting": "VMAT2 [2]; [10]", "result": "3 ± 2", "unit": "nM"}]}, {"molecule": "O=[N+]([O-])c1ccc(CCCNC(CF)Cc2ccc(F)cc2)cc1", "note": "(stereo not drawn) [Compound 123]", "values": [{"measurement": "Ki", "setting": "hERG channel", "result": "223 ± 199", "unit": "nM"}, {"measurement": "CLint scaled at 0.08 µM", "setting": "in vitro [5]", "result": 18.1, "unit": "mL/min/kg"}, {"measurement": "half-life at 0.08 µM", "setting": "[6]; pooled human liver microsomes", "result": 72, "unit": "min"}]}, {"molecule": "CC(Cc1ccccc1)NCCc1ccc(OCc2ccccc2)c(OCc2ccccc2)c1", "note": "(stereo not drawn) [Compound 22]", "values": [{"measurement": "Ki", "setting": "VMAT2 [1]", "result": "2000 ± 100", "unit": "nM"}, {"measurement": "Ki", "setting": "VMAT2 [2]; [10]", "result": "120 ± 1", "unit": "nM"}]}, {"molecule": "COc1ccc(CCCN[C@@H](C)Cc2ccccc2)cc1.Cl", "note": "[Compound 10]", "values": [{"measurement": "Ki", "setting": "VMAT2 [2]; Ki value at VMAT2, text value", "result": "25.5 ± 3.57", "unit": "nM"}, {"measurement": "Ki", "setting": "VMAT2 [2]; [3H]DA uptake (Ki) VMAT2, rat striatal synaptic vesicles", "result": "26 ± 3.6", "unit": "nM"}, {"measurement": "selectivity ratio at 1 hr", "setting": "[7]", "result": "> 30"}, {"measurement": "selectivity at VMAT2 over DAT", "setting": "[8]", "result": "> 30", "unit": "fold"}, {"measurement": "selectivity at VMAT2 over SERT", "setting": "[9]", "result": "> 30", "unit": "fold"}, {"measurement": "METH-stimulated locomotor activity", "setting": "rats", "result": "significant reduction"}]}, {"molecule": "CC(Cc1ccccc1)N(C)CCc1ccccc1", "note": "(stereo not drawn) [Compound 2]", "values": [{"measurement": "Ki", "setting": "VMAT2 [1]", "result": "7530 ± 2160", "unit": "nM"}, {"measurement": "Ki", "setting": "VMAT2 [2]; [10]", "result": "510 ± 100", "unit": "nM"}]}, {"molecule": "FCC(Cc1ccc(-c2cncnc2)cc1)NCCCc1ccc(F)cc1", "note": "(stereo not drawn) [Compound 69]", "values": [{"measurement": "CLint scaled at 0.08 µM", "setting": "in vitro [3]", "result": 76.8, "unit": "mL/min/kg"}, {"measurement": "half-life at 0.08 µM", "setting": "[4]; liver microsomes", "result": 36, "unit": "min"}]}, {"molecule": "CC(CCc1ccccc1)NCCCc1ccccc1", "note": "(stereo not drawn) [Compound 50]", "values": [{"measurement": "Ki", "setting": "VMAT2 [1]", "result": "4810 ± 1130", "unit": "nM"}, {"measurement": "Ki", "setting": "VMAT2 [2]; [10]", "result": "50 ± 12", "unit": "nM"}]}, {"molecule": "O=[N+]([O-])c1ccc(CCCNC(CF)Cc2ccc(F)cc2)cc1", "note": "(stereo not drawn) [Compound 124]", "values": [{"measurement": "CLint scaled at 0.08 µM", "setting": "in vitro [3]", "result": 116, "unit": "mL/min/kg"}, {"measurement": "half-life at 0.08 µM", "setting": "[4]; rat liver microsomes", "result": 24, "unit": "min"}]}, {"molecule": "FCC(Cc1ccc(F)cc1)NCCCc1ccncc1", "note": "(stereo not drawn) [Compound 143]", "values": [{"measurement": "CLint scaled at 0.08 µM", "setting": "in vitro [5]", "result": 98.1, "unit": "mL/min/kg"}, {"measurement": "half-life at 0.08 µM", "setting": "[6]; pooled liver microsomes", "result": 30, "unit": "min"}]}, {"molecule": "COc1ccc(CC(C)N(C)CCc2ccccc2)cc1", "note": "(stereo not drawn) [Compound 25]", "values": [{"measurement": "Ki", "setting": "VMAT2 [1]", "result": "11900 ± 1840", "unit": "nM"}, {"measurement": "Ki", "setting": "VMAT2 [2]; [10]", "result": "460 ± 75", "unit": "nM"}]}, {"molecule": "COc1ccc(CCCNC(C)Cc2ccc(OC)cc2)cc1", "note": "(stereo not drawn) [Compound 29]", "values": [{"measurement": "Ki", "setting": "VMAT2 [1]", "result": "410 ± 140", "unit": "nM"}, {"measurement": "Ki", "setting": "VMAT2 [2]; [10]", "result": "11 ± 2", "unit": "nM"}]}, {"molecule": "CC(Cc1ccc(F)cc1)NCCc1ccccc1", "note": "(stereo not drawn) [Compound 38]", "values": [{"measurement": "Ki", "setting": "VMAT2 [1]", "result": "2500 ± 1600", "unit": "nM"}, {"measurement": "Ki", "setting": "VMAT2 [2]; [10]", "result": "69 ± 9", "unit": "nM"}]}, {"molecule": "COc1ccc(CCCNC(C)Cc2ccc(O)cc2)cc1", "note": "(stereo not drawn) [Compound 36]", "values": [{"measurement": "Ki", "setting": "VMAT2 [1]", "result": "230 ± 60", "unit": "nM"}, {"measurement": "Ki", "setting": "VMAT2 [2]; [10]", "result": "72 ± 30", "unit": "nM"}]}, {"molecule": "OCC(Cc1ccc(F)cc1)NCCCc1ccc(Br)cc1", "note": "(stereo not drawn) [Compound 155]", "values": [{"measurement": "CLint scaled at 0.08 µM", "setting": "in vitro [3]", "result": "> 450", "unit": "mL/min/kg"}, {"measurement": "half-life at 0.08 µM", "setting": "[4]; liver microsomes", "result": "< 6", "unit": "min"}]}, {"molecule": "COc1ccc(CCC(C)NCCc2ccccc2)cc1", "note": "(stereo not drawn) [Compound 31]", "values": [{"measurement": "Ki", "setting": "VMAT2 [1]", "result": "2400 ± 100", "unit": "nM"}, {"measurement": "Ki", "setting": "VMAT2 [2]; [10]", "result": "62 ± 29", "unit": "nM"}]}, {"molecule": "FCC(Cc1ccc(F)cc1)NCCCc1ccncc1", "note": "(stereo not drawn) [Compound 142]", "values": [{"measurement": "Ki", "setting": "VMAT2 [2]; [11]", "result": "117 ± 18.7", "unit": "nM"}, {"measurement": "CLint scaled at 0.08 µM", "setting": "in vitro [3]", "result": 38.3, "unit": "mL/min/kg"}, {"measurement": "half-life at 0.08 µM", "setting": "[4]; liver microsomes", "result": 30, "unit": "min"}]}, {"molecule": "COc1ccc(CCCNC(C)Cc2ccc(F)cc2)cc1", "note": "(stereo not drawn) [Compound 40]", "values": [{"measurement": "Ki", "setting": "VMAT2 [1]", "result": "1700 ± 400", "unit": "nM"}, {"measurement": "Ki", "setting": "VMAT2 [2]; [10]", "result": "17 ± 3", "unit": "nM"}]}, {"molecule": "FCC(Cc1ccc(-c2cccnc2)cc1)NCCCc1ccc(F)cc1", "note": "(stereo not drawn) [Compound 84]", "values": [{"measurement": "CLint scaled at 0.08 µM", "setting": "in vitro [5]", "result": 173, "unit": "mL/min/kg"}, {"measurement": "Microsomal stability assays: Half-life", "setting": "[6]", "result": 6, "unit": "min"}]}, {"molecule": "COc1ccc(CC(C)NCCCCc2ccccc2)cc1OC", "note": "(stereo not drawn) [Compound 47]", "values": [{"measurement": "Ki", "setting": "VMAT2 [1]", "result": "1100 ± 100", "unit": "nM"}, {"measurement": "Ki", "setting": "VMAT2 [2]; [10]", "result": "29 ± 11", "unit": "nM"}]}, {"molecule": "Nc1ccc(CC(CF)NCCCc2ccc(F)cc2)cc1", "note": "(stereo not drawn) [Compound 80, [N-3-(4-fluorophenyl)-propan-1-yl]-3-(4-aminophenyl)-1-fluoro-2-propylamine]", "values": [{"measurement": "CLint scaled at 0.08 µM", "setting": "in vitro [5]", "result": 29.5, "unit": "mL/min/kg"}, {"measurement": "half-life at 0.08 µM", "setting": "[6]; pooled liver microsomes", "result": 42, "unit": "min"}]}, {"molecule": "CC(Cc1ccc(N)cc1)NCCc1ccccc1", "note": "(stereo not drawn) [Compound 44]", "values": [{"measurement": "Ki", "setting": "VMAT2 [1]", "result": 17000, "unit": "nM"}, {"measurement": "Ki", "setting": "VMAT2 [2]; [10]", "result": "210 ± 80", "unit": "nM"}]}, {"molecule": "OCC(Cc1ccc(F)cc1)NCCCn1cccn1", "note": "(stereo not drawn) [Compound 130]", "values": [{"measurement": "Ki", "setting": "VMAT2 [2]; [11]", "result": "634 ± 195", "unit": "nM"}, {"measurement": "CLint scaled at 0.08 µM", "setting": "in vitro [5]", "result": 37.3, "unit": "mL/min/kg"}, {"measurement": "half-life at 0.08 µM", "setting": "[6]; pooled liver microsomes", "result": 36, "unit": "min"}]}, {"molecule": "C[C@H](Cc1ccccc1)NCCCc1ccccc1", "note": "[Compound 5]", "values": [{"measurement": "Ki", "setting": "VMAT2 [1]", "result": "910 ± 590", "unit": "nM"}, {"measurement": "Ki", "setting": "VMAT2 [2]; [10]", "result": "6 ± 1", "unit": "nM"}]}, {"molecule": "CC(Cc1ccc(NC=O)cc1)N(C=O)CCCc1ccccc1", "note": "(stereo not drawn) [Compound 75]", "values": [{"measurement": "Ki", "setting": "VMAT2 [2]; [11]", "result": "22700 ± 432", "unit": "nM"}, {"measurement": "CLint scaled at 0.08 µM", "setting": "in vitro [5]", "result": 121, "unit": "mL/min/kg"}, {"measurement": "half-life at 0.08 µM", "setting": "[6]; pooled liver microsomes", "result": 12, "unit": "min"}]}]}
